Results published in PubChem BioAssay AID256 (DTP/NCI, 2004).
Several values for one entry are separate records, joined by “and”; a condition that tells them apart may be missing. Equal entries are not always repeated. Toxic doses and inconclusive results are not listed. The calls were made as follows: active = survival T/C of 150% or more; inactive = T/C below 125% in these data.

Test system: CD2F1 mice, L1210 leukemia ip, survival T/C
Experiment: NCI In Vivo Anticancer Drug Screen. Data for tumor model L1210 Leukemia (intraperitoneal) in CD2F1 (CDF1) mice
Conditions: higher = longer survival
Procedure, shortened: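 Transplantable tumor in mice; compound-treated vs vehicle-treated groups. Read-out = treated/control ratio of the measured endpoint.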

Measured: T/C

CC(=O)Oc1c[nH]c(=O)[nH]c1=O
inactive: endpoint: mean survival time, dose: 12.5 mg/kg/injection, schedule: Q01DX009 (ip), vehicle: distilled water + Tween-80 97 % of control and 112 % of control | endpoint: mean survival time, dose: 25.0 mg/kg/injection, schedule: Q01DX009 (ip), vehicle: distilled water + Tween-80 97 % of control and 98 % of control | endpoint: mean survival time, dose: 50.0 mg/kg/injection, schedule: Q01DX009 (ip), vehicle: distilled water + Tween-80 102 % of control and 110 % of control | endpoint: mean survival time, dose: 100.0 mg/kg/injection, schedule: Q01DX009 (ip), vehicle: distilled water + Tween-80 114 % of control and 105 % of control | endpoint: mean survival time, dose: 200.0 mg/kg/injection, schedule: Q01DX009 (ip), vehicle: distilled water + Tween-80 114 % of control and 105 % of control | endpoint: mean survival time, dose: 400.0 mg/kg/injection, schedule: Q01DX009 (ip), vehicle: distilled water + Tween-80 117 % of control and 124 % of control

CC(Cl)CN(CC(C)Cl)c1ccc(N=Nc2ccccc2)cc1 (stereo not drawn)
inactive: endpoint: mean survival time, dose: 50.0 mg/kg/injection, schedule: Q01DX009 (ip), vehicle: Klucel (hydroxypropylcellulose) (HPC) 100 % of control | endpoint: mean survival time, dose: 100.0 mg/kg/injection, schedule: Q01DX009 (ip), vehicle: Klucel (hydroxypropylcellulose) (HPC) 106 % of control | endpoint: mean survival time, dose: 200.0 mg/kg/injection, schedule: Q01DX009 (ip), vehicle: Klucel (hydroxypropylcellulose) (HPC) 90 % of control

CC(c1ccccc1)n1ccnc1CO (stereo not drawn)
inactive: endpoint: mean survival time, dose: 12.5 mg/kg/injection, schedule: Q01DX009 (ip), vehicle: saline with Tween-80 96 % of control | endpoint: mean survival time, dose: 25.0 mg/kg/injection, schedule: Q01DX009 (ip), vehicle: saline with Tween-80 104 % of control | endpoint: mean survival time, dose: 50.0 mg/kg/injection, schedule: Q01DX009 (ip), vehicle: saline with Tween-80 96 % of control and 102 % of control | endpoint: mean survival time, dose: 100.0 mg/kg/injection, schedule: Q01DX009 (ip), vehicle: saline with Tween-80 91 % of control | endpoint: mean survival time, dose: 200.0 mg/kg/injection, schedule: Q01DX009 (ip), vehicle: saline with Tween-80 98 % of control

CCCOC(C(=O)OC1CCN(C)CC1)(c1ccccc1)c1ccccc1
inactive: endpoint: mean survival time, dose: 12.5 mg/kg/injection, schedule: Q04DX003 (ip), vehicle: saline 108 % of control | endpoint: mean survival time, dose: 25.0 mg/kg/injection, schedule: Q04DX003 (ip), vehicle: saline 102 % of control | endpoint: mean survival time, dose: 50.0 mg/kg/injection, schedule: Q04DX003 (ip), vehicle: saline 97 % of control

COc1cc(C2c3cc4c(c(OC5OC6CO[C@@H](c7cccs7)OC6C(O)C5O)c3C[C@@H]3COC(=O)[C@@H]23)OCO4)cc(OC)c1O (stereo partly drawn)
inactive: endpoint: median survival time, dose: 0.8 mg/kg/injection, schedule: Q01DX005 (ip), vehicle: saline with Tween-80 104 % of control | endpoint: median survival time, dose: 1.6 mg/kg/injection, schedule: Q01DX005 (ip), vehicle: saline with Tween-80 100 % of control | endpoint: median survival time, dose: 3.2 mg/kg/injection, schedule: Q01DX005 (ip), vehicle: saline with Tween-80 107 % of control | endpoint: median survival time, dose: 6.4 mg/kg/injection, schedule: Q01DX005 (ip), vehicle: saline with Tween-80 107 % of control

CCSC(C(O)C(O)C(O)C(O)CO)n1cnc2c(SC)ncnc21 (stereo not drawn)
inactive: endpoint: mean survival time, dose: 25.0 mg/kg/injection, schedule: Q01DX005 (ip), vehicle: water 89 % of control | endpoint: mean survival time, dose: 50.0 mg/kg/injection, schedule: Q01DX005 (ip), vehicle: water 94 % of control | endpoint: mean survival time, dose: 100.0 mg/kg/injection, schedule: Q01DX005 (ip), vehicle: water 94 % of control | endpoint: mean survival time, dose: 200.0 mg/kg/injection, schedule: Q01DX005 (ip), vehicle: water 94 % of control

Cc1ccc([PH+](c2ccc(C)cc2)c2ccc(C)cc2)cc1.Cc1ccc([PH+](c2ccc(C)cc2)c2ccc(C)cc2)cc1.[Cl][Hg][Cl]
inactive: endpoint: mean survival time, dose: 50.0 mg/kg/injection, schedule: Q01DX009 (ip), vehicle: saline 103 % of control | endpoint: mean survival time, dose: 100.0 mg/kg/injection, schedule: Q01DX009 (ip), vehicle: saline 95 % of control | endpoint: mean survival time, dose: 200.0 mg/kg/injection, schedule: Q01DX009 (ip), vehicle: saline 91 % of control

CC1(C)COCN1COC1CCCCC1
inactive: endpoint: mean survival time, dose: 12.5 mg/kg/injection, schedule: Q01DX009 (ip), vehicle: suspension in saline 95 % of control | endpoint: mean survival time, dose: 25.0 mg/kg/injection, schedule: Q01DX009 (ip), vehicle: suspension in saline 100 % of control | endpoint: mean survival time, dose: 50.0 mg/kg/injection, schedule: Q01DX009 (ip), vehicle: suspension in saline 103 % of control | endpoint: mean survival time, dose: 100.0 mg/kg/injection, schedule: Q01DX009 (ip), vehicle: suspension in saline 108 % of control | endpoint: mean survival time, dose: 200.0 mg/kg/injection, schedule: Q01DX009 (ip), vehicle: suspension in saline 105 % of control
